Some test systems named below: A498; A549; ACHN; CCRF-CEM; HCC 2998; HOP-92; KM-20L2; NCI-H23; NCI-H522; OVCAR-8; SF-539; SK-MEL-5; SNB-19; SNB-75; TK-10; UACC-62; Hs-578T; MDA-N; NCI/ADR-RES; SR.
What all share (assay): NCI tumour cell line growth inhibition, 48 h

SMILES strings stand for the structures.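 Exposure lasted 48 hours, with cells grown in 96-well plates and compounds tested at five concentrations. At the GI50, growth is halved.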 Active and inactive are the calls of the source. No stated cut-off is given here; in the data, active = GI50 up to about 1.1 µM and inactive = higher.

As for `O=C(NCC(=O)N1CCOC1=O)OCc1ccccc1`, the GI50 with A498, with A549, in the assay on ACHN, in the assay on CCRF-CEM, in the assay on HCC 2998 and in the assay with HOP-92 was > 100 µM (inactive) each time. For the same molecule, the GI50 in the assay on KM-20L2, in the assay on NCI-H23, in the assay on NCI-H522, in the assay with OVCAR-8, with SF-539 and with SK-MEL-5 was > 100 µM (inactive) throughout. Besides, the GI50 in the assay on SNB-19, in the assay on SNB-75, in the assay on TK-10 and in the assay on UACC-62 was > 100 µM (inactive) in each case.
For `COc1ccc(/C=C/C(=O)c2cc(OC)cc(OC)c2)cc1`, the GI50 in the assay with A498 is 3.67 µM (inactive); with A549, 2.13 µM (inactive); in the assay with ACHN, 4.7 µM (inactive); with CCRF-CEM it was 2.07 µM (inactive); with HCC 2998, 4.44 µM (inactive); with HOP-92 it was 20.8 µM (inactive). Further, the GI50 in the assay with Hs-578T was 5.75 µM (inactive); in the assay with MDA-N, 1.94 µM (inactive); in the assay on NCI-H23, 2.58 µM (inactive); in the assay on NCI-H522, 2.22 µM (inactive); with NCI/ADR-RES it was 2.69 µM (inactive); in the assay with OVCAR-8, 3.39 µM (inactive). Besides, the GI50 in the assay with SF-539 was 1.05 µM (active); in the assay with SK-MEL-5, 10.3 µM (inactive); in the assay with SNB-19, 1.69 µM (inactive); with SNB-75, 2.64 µM (inactive); in the assay on SR, 0.371 µM (active); in the assay with TK-10 it was 11.5 µM (inactive). For the same molecule, the GI50 in the assay with UACC-62 is 4.14 µM (inactive).
`OC1=CN=C(c2ccccc2)Oc2ccccc21`: the GI50 in the assay on A498, in the assay with A549, in the assay on ACHN, in the assay with CCRF-CEM, in the assay on HCC 2998 and in the assay on HOP-92 was > 100 µM (inactive) throughout. For the same molecule, the GI50 in the assay on KM-20L2 is > 100 µM (inactive); in the assay with NCI-H23, > 100 µM (inactive); in the assay on OVCAR-8, > 100 µM (inactive); in the assay with SF-539, 19 µM (inactive); in the assay on SK-MEL-5, > 100 µM (inactive); in the assay on SNB-19, 42.5 µM (inactive). In addition, the GI50 in the assay on SNB-75 was 30.7 µM (inactive); with TK-10 it was > 100 µM (inactive); with UACC-62, > 100 µM (inactive).
Turning to `Cc1cc(N(CCC#N)S(=O)(=O)c2ccccc2)ccc1/C=C1\N=C(c2ccc(Cl)cc2)OC1=O`, the GI50 in the assay with A498 is > 100 µM (inactive); in the assay with A549, > 100 µM (inactive); with ACHN, > 100 µM (inactive); with CCRF-CEM, 55.5 µM (inactive); in the assay with HCC 2998 it was > 100 µM (inactive); in the assay with HOP-92, > 100 µM (inactive). Further, the GI50 with KM-20L2, in the assay on NCI-H23, in the assay with OVCAR-8, in the assay on SF-539, in the assay on SK-MEL-5 and in the assay with SNB-19 was > 100 µM (inactive) in each case. Besides, the GI50 in the assay on UACC-62 is > 100 µM (inactive).
In the case of `O=C1/C(=C\c2ccc(-c3ccc(Cl)cc3Cl)o2)SC2NC(COc3ccc(Cl)cc3)=NN12` (configuration not stated), the GI50 in the assay with A498 was 2.19 µM (inactive); with A549, 69.7 µM (inactive); in the assay on ACHN it was 53.7 µM (inactive); in the assay on CCRF-CEM it was 16 µM (inactive); with HCC 2998, 41.1 µM (inactive); in the assay with HOP-92, 26.5 µM (inactive). The GI50 with Hs-578T was 25.5 µM (inactive); with MDA-N it was 44.2 µM (inactive); in the assay on NCI-H23, 53.2 µM (inactive); in the assay with NCI-H522, 55 µM (inactive); with NCI/ADR-RES, 37.5 µM (inactive); in the assay on OVCAR-8, 38.3 µM (inactive). For the same molecule, the GI50 with SF-539 is 49 µM (inactive); in the assay with SK-MEL-5, 36.7 µM (inactive); in the assay on SNB-19, 53.7 µM (inactive); in the assay with SNB-75 it was > 100 µM (inactive); in the assay on SR it was 33.3 µM (inactive); in the assay on TK-10, 2.96 µM (inactive). The GI50 in the assay with UACC-62 was 34 µM (inactive).
Regarding `N=C(N)NNC(=O)CCn1[nH]c(=O)c(Cl)c(Cl)c1=O`, the GI50 in the assay on A549, in the assay on ACHN, in the assay on CCRF-CEM, with HCC 2998, in the assay with KM-20L2 and in the assay with NCI-H23 was > 100 µM (inactive) in each case. In addition, the GI50 in the assay on NCI-H522, in the assay on OVCAR-8, with SF-539, in the assay on SK-MEL-5, in the assay with SNB-19 and in the assay with SNB-75 was > 100 µM (inactive) in each case. Besides, the GI50 in the assay with TK-10 and with UACC-62 was > 100 µM (inactive) in each case.
In the case of `Cc1ccc(NC(=O)CSc2nnc(-c3ccc(/N=C\c4ccc(Cl)cc4)cc3)o2)cc1`, the GI50 with A549 was > 100 µM (inactive); with ACHN it was > 100 µM (inactive); with CCRF-CEM, > 100 µM (inactive); in the assay with KM-20L2, > 100 µM (inactive); with NCI-H23, > 100 µM (inactive); with NCI-H522, 34.3 µM (inactive). In addition, the GI50 with OVCAR-8 was > 100 µM (inactive); in the assay on SK-MEL-5 it was > 100 µM (inactive); in the assay with SNB-19 it was > 100 µM (inactive); in the assay on SNB-75, 72.8 µM (inactive); in the assay on SR, > 100 µM (inactive); in the assay on TK-10, > 100 µM (inactive). The GI50 in the assay on UACC-62 is > 100 µM (inactive).
Take `COc1c(C)c(OC)c2c(c1O)[C@@H]1[C@@H]3Cc4c(OC)c(C)c(OC)c(O)c4[C@H](CNC(=O)c4cnc5ccccc5n4)N3[C@@H](C#N)[C@H](C2)N1C`: the GI50 with A498 was 0.00232 µM (active); with A549, 0.0292 µM (active); in the assay with ACHN it was 0.00348 µM (active); with CCRF-CEM it was 0.000798 µM (active); in the assay on HCC 2998, 0.00327 µM (active); in the assay on HOP-92 it was 0.00136 µM (active). For the same molecule, the GI50 in the assay on Hs-578T is 0.00134 µM (active); with MDA-N, 0.00138 µM (active); in the assay with NCI-H23 it was 0.00277 µM (active); in the assay with NCI-H522, 0.000399 µM (active); in the assay on NCI/ADR-RES, > 0.0643 µM (active); in the assay with OVCAR-8, 0.00283 µM (active). Moreover, the GI50 with SF-539 was 0.000873 µM (active); in the assay on SK-MEL-5, 0.00254 µM (active); in the assay on SNB-19, 0.00385 µM (active); in the assay with SNB-75, 0.00266 µM (active); with SR it was 0.000182 µM (active); with TK-10, 0.00771 µM (active). Also, the GI50 in the assay on UACC-62 was 0.00123 µM (active).
With `O=C1[C@@H]2C(c3ccncc3)=NO[C@@H]2C(=O)N1c1ccc(Cc2ccc(N3C(=O)[C@H]4C(c5ccncc5)=NO[C@H]4C3=O)cc2)cc1`, the GI50 in the assay with A498, in the assay on A549, with ACHN, with CCRF-CEM, in the assay with HCC 2998 and in the assay on HOP-92 was > 100 µM (inactive) each time. Also, the GI50 with KM-20L2, in the assay with NCI-H23, in the assay with OVCAR-8, in the assay with SF-539, with SK-MEL-5 and in the assay with SNB-75 was > 100 µM (inactive) throughout. For the same molecule, the GI50 in the assay with TK-10 and with UACC-62 was > 100 µM (inactive) each time.
In the case of `O=C1OC(c2ccccc2)=N/C1=C\c1ccc2ccccc2c1`, the GI50 with A498, in the assay with A549, in the assay on ACHN, in the assay with CCRF-CEM, in the assay on HOP-92 and with KM-20L2 was > 100 µM (inactive) each time. Also, the GI50 with NCI-H23, in the assay with NCI-H522, in the assay with OVCAR-8, with SF-539, in the assay on SK-MEL-5 and in the assay on SNB-19 was > 100 µM (inactive) throughout. The GI50 in the assay on SNB-75, in the assay on TK-10 and in the assay on UACC-62 was > 100 µM (inactive) in each case.
On to `CC(O)C(N/C=C1/N=C(c2ccccc2)OC1=O)C(=O)O` (configuration not stated), for which the GI50 in the assay on A498, in the assay on A549, with ACHN, with CCRF-CEM, in the assay with HCC 2998 and in the assay on HOP-92 was > 100 µM (inactive) throughout. The GI50 with KM-20L2, with NCI-H23, with NCI-H522, with OVCAR-8, in the assay with SF-539 and in the assay on SK-MEL-5 was > 100 µM (inactive) throughout. The GI50 with SNB-19, in the assay on SNB-75, with TK-10 and in the assay with UACC-62 was > 100 µM (inactive) each time.
Turning to `CN(C)CCn1c(=O)c2ccc(NCCN3CCNCC3)c3c(=O)c4ccccc4n(c1=O)c23`, the GI50 in the assay on A498 is 4.15 µM (inactive); with A549, 0.962 µM (active); in the assay on ACHN, 1.27 µM (inactive); with CCRF-CEM, 0.207 µM (active); with HCC 2998, 1.97 µM (inactive); in the assay on HOP-92, 0.776 µM (active). Besides, the GI50 with Hs-578T was 3.04 µM (inactive); with MDA-N, 3.68 µM (inactive); in the assay on NCI-H23, 2.3 µM (inactive); in the assay on NCI-H522 it was 1.07 µM (active); in the assay on NCI/ADR-RES it was 9.93 µM (inactive); in the assay on OVCAR-8 it was 1.91 µM (inactive). For the same molecule, the GI50 is 0.473 µM (active) in the assay with SF-539; 3.47 µM (inactive) with SK-MEL-5; 2.94 µM (inactive) with SNB-19; 2.13 µM (inactive) in the assay on SNB-75; 0.0776 µM (active) in the assay on SR; 4.86 µM (inactive) with TK-10. In addition, in the assay with UACC-62, the GI50 was 3.47 µM (inactive).

The record behind these values is ChEMBL document CHEMBL1201862, “PubChem BioAssay data set” (2004).
